The AC50 is the concentration at which the activity in the assay is half-maximal. For orientation: DC50 means the concentration at which degradation of the target reaches its halfway point.

Read-outs that look alike come from different tables or passages of the source.

The target of one test is CRBN (Homo sapiens, UniProt Q96SW2). The test can be described thus: CRBN displacement assay Format 2a (fluorescence polarization, 1536-well, Envision reader). The class given is binding. Conditions: for CRBN Amax* (% at 50 μM) Format 2a: greatest effect as % displacement of the reference probe at the highest concentration tested (50 μM), given where AC50 >50 μM. How it is done: Compounds were tested in the following biochemical and cellular assays.
Sequence of CRBN (Q96SW2 whole entry): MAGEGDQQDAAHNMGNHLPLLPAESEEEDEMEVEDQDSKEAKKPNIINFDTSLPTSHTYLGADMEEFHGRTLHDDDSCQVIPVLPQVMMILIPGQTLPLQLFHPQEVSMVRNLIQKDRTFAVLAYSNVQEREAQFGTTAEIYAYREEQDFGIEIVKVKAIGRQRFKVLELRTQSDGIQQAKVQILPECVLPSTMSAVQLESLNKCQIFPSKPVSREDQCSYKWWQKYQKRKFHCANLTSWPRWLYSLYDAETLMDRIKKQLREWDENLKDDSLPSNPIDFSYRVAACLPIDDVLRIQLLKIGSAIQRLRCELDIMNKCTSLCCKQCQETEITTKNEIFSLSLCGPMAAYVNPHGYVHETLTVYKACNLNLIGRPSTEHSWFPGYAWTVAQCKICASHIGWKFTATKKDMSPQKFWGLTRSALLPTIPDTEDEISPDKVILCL
BodipyFL conjugated lenalidomide compound HH was used as a fluorescent probe. […] Protein and substrate were diluted in assay buffer.
The fluorescence of the Bodipy FL-based probe was excited at 480 nm and the emissions of the product were measured at 535 nm. The fluorescence in each well was excited by 30 flashes per measurement.
For the determination of AC50 values, assays were performed at room temperature in 1536-well plates with a total assay volume of 6.03 μL per well. The test compounds were dissolved and diluted in 100% DMSO. For the assays, 30 nL of DMSO or compound solution were added per well, followed by the addition of 3 μL protein solution (80 nM protein in 1× assay buffer).
The final assay concentration of the protein was nominally 40 nM. After 45 minutes of pre-incubation at room temperature, the competition for binding was started by the addition of 3 μL probe solution (10 nM probe dissolved in assay buffer). The final concentration of the probe in the assays was 5 nM. After the addition of the probe solution, the final DMSO concentration in the assay was 0.5% (v/v). The effect of the probe on the pre-established compound-protein complex equilibrium was determined after 45 minutes (t=45 min). The AC50 value was calculated from the plot of percentage of protein saturation versus the test compound concentration by a logistics fit according to: y=A^2+(A^1−A^2)/(1+(x/AC50)^p), where y is the %-saturation value at the test compound concentration, x. A^1 is the lowest saturation value, i.e., 0%, and A^2 the maximum saturation value, i.e. 100%. The exponent, p, is the Hill coefficient.

The next test addresses T1, BTK (Homo sapiens, UniProt Q06187).
T1 construct: the BTK open reading frame (ORF) was first shuttled from a pcDNA-DEST40-BTK vector; expressed in transfected cells; host or cells: HEK293A (Invitrogen R70507), lentiviral transduction, blasticidin selection
Put plainly: BTK-GFP protein abundance flow cytometry assay in HEK293A. The class given is cell-based. Conditions: 24 h. How it is done:
Degradation of BTK, CSK, ABL2, EPHA4 and YES1 was measured in HEK293A cells (Invitrogen R70507) expressing either BTK-GFP and RFP, CSK-GFP and mCherry, GFP-ABL2 and mCherry, EPHA4-GFP and mCherry, or YES1-GFP and mCherry from a stably integrated bicistronic BTK-GFP-iresRFP, CSK-GFP-CHYSEL-mCherry, GFP-ABL2-CHYSEL-mCherry, EPHA4-GFP-CHYSEL-mCherry, or YES1-GFP-CHYSEL-mCherry construct, respectively. Reduction of the GFP signal measured by flow cytometry served as readout for BTK, CSK, ABL2, EPHA4 and YES1 degradation after degrader treatment.
The mix was incubated for another 20 min at RT and then added on 1 mL of a freshly prepared suspension of HEK293FT cells in a well of a 6-well plate (concentration 1.2×10^6 cells/mL). 1 day after transfection, the medium was replaced with 1.5 mL of complete growth medium (DMEM high Glucose+10% FCS+1% L-Glutamine+1% NEAA+1% NaPyr.). 48 h post transfection supernatant containing viral transducing particles was collected and frozen at −80° C.
Infection was performed with 90 μL of collected supernatant containing viral transducing particles in 1 mL medium including 8 µg/mL polybrene. 24 h post infection, stably transfected cells were selected with blasticidin at a concentration of 8 μg/mL referred to as stable HEK293A sensor cells.
Stable HEK293A sensor cells were maintained in complete growth medium (DMEM high Glucose+10% FCS+1% L-Glutamine+1% NEAA+1% NaPyr.) with passaging performed twice per week. On Day 0, stable HEK293A sensor cells were seeded at 10,000 cells/well in a 96-well microtiter plate in 260 μL complete medium. On Day 1, cells were treated in duplicate with 10-point 1:3 dilution series of compound using the HP D300 Digital Dispenser (Tecan). DMSO concentrations were normalized across the plate to 0.1%. On Day 2, after 24 h of incubation at 37° C., treatment media was discarded, cells rinsed with 100 μL/well PBS and then detached using 40 μL trypsin/well for 5 min. Trypsin was neutralized with 100 μL/well PBS+20% FCS). Flow cytometry was performed on the samples using the BD FACS CANTO II (Becton Dickinson). Cell identification was then performed using forward (FSC) vs. side scatter (SSC) plots. Single cell discrimination is performed using SSC-Width (SSC-W) vs. SSC-Height (SSC-H) plots. Median GFP values for 5,000 single cells are used to determine BTK levels. Median GFP values from HEK293 Å-iresRFP are used as a background signal and thus defining 0% BTK signal. Median GFP values from DMSO treated HEK293 Å-BTK-GFP-iresRFP are used to define 100% BTK signal for subsequent DC50 curves (concentration at 50% BTK degradation). GFP and RFP are read in the channels called FITC and PE, respectively.
Concentration response curves plotting relative reduction of the GFP signal (measured by flow cytometry) versus 10 compound concentrations (starting concentration 10 μM, 3 fold dilution steps) of the compounds allowed generation of DC50 values. Protein abundance measured for the second generation vectors having a chysel was done in close analogy to the above described method for measuring BTK abundance.
Table 5 columns are defined as follows: DC50 refers to the concentration at which 50% maximal degradation was observed; deg Amax is the extent of degradation and the value refers to the % protein remaining at the concentration at which maximum degradation is seen.
(A flow cytometer gives signals particle by particle.)

[1] abbreviates: concentration at which 50% of reference probe Compound HH is displaced, 40 nM protein, 5 nM probe, read-out: CRBN AC50 [μM] Format 2a.

T1 sequence (Q06187 whole entry): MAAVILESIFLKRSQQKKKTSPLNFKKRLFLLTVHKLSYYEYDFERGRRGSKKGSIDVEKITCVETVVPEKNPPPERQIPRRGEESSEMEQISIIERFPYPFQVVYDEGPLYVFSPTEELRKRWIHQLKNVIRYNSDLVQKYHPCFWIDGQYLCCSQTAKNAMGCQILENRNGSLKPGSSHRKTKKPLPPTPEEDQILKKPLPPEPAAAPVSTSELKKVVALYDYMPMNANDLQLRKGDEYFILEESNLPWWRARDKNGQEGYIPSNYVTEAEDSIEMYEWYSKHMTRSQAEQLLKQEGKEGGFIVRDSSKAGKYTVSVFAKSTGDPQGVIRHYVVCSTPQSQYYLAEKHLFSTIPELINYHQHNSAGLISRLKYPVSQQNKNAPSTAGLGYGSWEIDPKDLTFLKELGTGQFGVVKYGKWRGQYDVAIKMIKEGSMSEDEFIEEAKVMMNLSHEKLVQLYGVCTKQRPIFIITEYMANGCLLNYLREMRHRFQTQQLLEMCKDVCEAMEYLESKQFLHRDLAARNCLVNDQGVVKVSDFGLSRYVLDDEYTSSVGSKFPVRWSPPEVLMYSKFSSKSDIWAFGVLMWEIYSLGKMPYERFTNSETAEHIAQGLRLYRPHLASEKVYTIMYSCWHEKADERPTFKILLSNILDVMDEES

The molecule `Cn1cc(Br)c(CN2CCC(=O)NC2=O)n1` [ILB-85, 1-((4-bromo-1-methyl-1H-pyrazol-3-yl)methyl)dihydropyrimidine-2,4(1H,3H)-dione] returned an AC50 on CRBN greater than 50 µM. At CRBN (45 min), the “CRBN Amax* (% at 50 μM) Format 2a” value was found to be 47%.

As for `Cc1c(NC(=O)N2C[C@H](CC(C)C)[C@@H](O)C2)cc(F)cc1-c1ncnc2[nH]c(-c3ccc(CN4CCN(CCOc5ccc(N6CCC(=O)NC6=O)cc5)CC4)cc3)cc12` [Compound 32, (3R,4S)—N-(3-(6-(4-((4-(2-(4-(2,4-Dioxotetrahydropyrimidin-1(2H)-yl)phenoxy)ethyl)piperazin-1-yl)methyl)phenyl)-7H-pyrrolo[2,3-d]pyrimidin-4-yl)-5-fluoro-2-methylphenyl)-3-hydroxy-4-isobutylpyrrolidine-1-carboxamide], at BTK (% protein remaining at the concentration at which maximum degradation is seen, HEK293A), the “BTK degradation Amax” value came out at 16.7%. For the same molecule, the 50% degradation concentration (DC50) at BTK (concentration at which 50% maximal degradation was observed, HEK293A BTK-GFP sensor cells) is 0.0014 µM.

Turning to “1-((4-bromo-1H-pyrazol-5-yl)methyl)dihydropyrimidine-2,4(1H,3H)-dione [ILB-88]”, the concentration at half-maximal activity (AC50) at CRBN (setting [1]) was greater than 50 µM. Further, at CRBN, the “CRBN Amax* (% at 50 μM) Format 2a” value was determined as 37%.

On to `NCCC#Cc1ccc(N2CCC(=O)NC2=O)cc1` [ILB-44, 1-(4-(4-aminobut-1-yn-1-yl)phenyl)dihydropyrimidine-2,4(1H,3H)-dione], for which the AC50 on CRBN (setting [1]) was 5.43 µM.

As for `CCOC(=O)c1cnc(C)c(N2CCC(=O)NC2=O)c1` [ILB-82, ethyl 5-(2,4-dioxotetrahydropyrimidin-1(2H)-yl)-6-methylnicotinate], at CRBN (setting [1]), the AC50 amounted to 29.8 µM.

Molecule `O=C(O)Cn1cc(N2CCC(=O)NC2=O)cn1` [ILB-65, 2-(4-(2,4-Dioxotetrahydropyrimidin-1(2H)-yl)-1H-pyrazol-1-yl)acetic acid] came in with an AC50 on CRBN of 26.1 µM.

Take `O=C1CCN(c2ccc(C#CCCCI)cc2)C(=O)N1` [ILB-39, 1-(4-(5-iodopent-1-yn-1-yl)phenyl)dihydropyrimidine-2,4(1H,3H)-dione]: the AC50 at CRBN (setting [1]) is 3.15 µM.

On CRBN, `O=C1CCN(Cc2cccn(C3CCN(C(=O)OCc4ccccc4)CC3)c2=O)C(=O)N1` [ILB-94, Benzyl-4-(3-((2,4-dioxotetrahydropyrimidin-1(2H)-yl)methyl)-2-oxopyridin-1(2H)-yl)piperidine-1-carboxylate] registered a concentration at half-maximal activity (AC50) of 4.95 µM.

The molecule `Cc1cc(O)ccc1N1CCC(=O)NC1=O` [ILB-13, 1-(4-hydroxy-2-methylphenyl)dihydropyrimidine-2,4(1H,3H)-dione] had a concentration at half-maximal activity (AC50) on CRBN of 2.42 µM.

At CRBN, `O=C1CCN(Cc2sccc2Br)C(=O)N1` [ILB-83, 1-((3-bromothiophen-2-yl)methyl)dihydropyrimidine-2,4(1H,3H)-dione] yielded a concentration at half-maximal activity (AC50) of 45.6 µM.

As to `NCCN1CCC(Oc2ccc(N3CCC(=O)NC3=O)cc2)CC1` [ILB-68, 1-(4-((1-(2-aminoethyl)piperidin-4-yl)oxy)phenyl)dihydropyrimidine-2,4(1H,3H)-dione], on CRBN (setting [1]), the AC50 was determined as 4.7 µM.

Consider `O=C1CCN(c2cc(C(=O)O)ccc2O)C(=O)N1` [ILB-22, 3-(2,4-Dioxotetrahydropyrimidin-1(2H)-yl)-4-hydroxybenzoic acid], for which the AC50 at CRBN (setting [1]) was found to be 0.69 µM.

`O=C1CCN(Cc2cc(Br)ccn2)C(=O)N1` [ILB-92, 1-((4-bromopyridin-2-yl)methyl)dihydropyrimidine-2,4(1H,3H)-dione] gave an AC50 on CRBN of 1.85 µM.

Consider `O=C(O)COc1ccc(Cl)c(N2CCC(=O)NC2=O)c1` [ILB-17, 2-(4-Chloro-3-(2,4-dioxotetrahydropyrimidin-1(2H)-yl)phenoxy)acetic acid], for which, at CRBN (setting [1]), the AC50 amounted to 3.41 µM.

At CRBN, `O=C1CCN(Cc2ccncc2Br)C(=O)N1` [ILB-89, 1-((3-bromopyridin-4-yl)methyl)dihydropyrimidine-2,4(1H,3H)-dione] showed an AC50 of 16.7 µM.

`O=C1CCN(c2ccc(C#CCN3CCC(n4cc(Br)cn4)CC3)cc2)C(=O)N1` [ILB-49, 1-(4-(3-(4-(4-bromo-1H-pyrazol-1-yl)piperidin-1-yl)prop-1-yn-1-yl)phenyl)dihydropyrimidine-2,4(1H,3H)-dione]: the AC50 at CRBN (setting [1]) was 3.36 µM.

On CRBN, `Nc1ncc(Br)cc1CN1CCC(=O)NC1=O` [ILB-93, 1-((2-amino-5-bromopyridin-3-yl)methyl)dihydropyrimidine-2,4(1H,3H)-dione] registered a half-maximal activity concentration (AC50) of 10.9 µM.

On to `C[Si](C)(C)CCOCN1C(=O)CCN(Cc2cccc(C=O)c2)C1=O` [ILB-10, 3-((2,4-Dioxo-3-((2-(trimethylsilyl)ethoxy)methyl)tetrahydropyrimidin-1(2H)-yl)methyl)benzaldehyde], for which the AC50 at CRBN (setting [1]) is greater than 50 µM. Moreover, the “CRBN Amax* (% at 50 μM) Format 2a” value on CRBN (45 min) is 0%.

Molecule `O=C1CCN(Cc2cc(C(F)(F)F)[nH]n2)C(=O)N1` [ILB-84, 1-((5-(trifluoromethyl)-1H-pyrazol-3-yl)methyl)dihydropyrimidine-2,4(1H,3H)-dione] showed an AC50 at CRBN of 33.3 µM.

With `O=C1CCN(Cc2nc(C(=O)O)cs2)C(=O)N1` [ILB-87, 2-((2,4-dioxotetrahydropyrimidin-1(2H)-yl)methyl)thiazole-4-carboxylic acid], half-maximal activity at CRBN (AC50) was put at 5.34 µM.

`O=C1CCN(Cc2cc(Cl)ccn2)C(=O)N1` [ILB-91, 1-((4-chloropyridin-2-yl)methyl)dihydropyrimidine-2,4(1H,3H)-dione] came in with a half-maximal activity concentration (AC50) at CRBN of 5.22 µM.

As for `O=C(O)CCn1cc(N2CCC(=O)NC2=O)cn1` [ILB-66, 3-(4-(2,4-Dioxotetrahydropyrimidin-1(2H)-yl)-1H-pyrazol-1-yl)propanoic acid], on CRBN, the AC50 is greater than 50 µM. The “CRBN Amax* (% at 50 μM) Format 2a” value on CRBN (45 min) came to 46%.

Molecule `COc1ccc(C(=O)O)cc1CN1CCC(=O)NC1=O` [ILB-9, 3-((2,4-Dioxotetrahydropyrimidin-1(2H)-yl)methyl)-4-methoxybenzoic acid] displayed an AC50 at CRBN greater than 50 µM. Further, the “CRBN Amax* (% at 50 μM) Format 2a” value on CRBN (45 min) came out at 1%.

In the case of `O=C1CCN(Cc2ncc(Br)cn2)C(=O)N1` [ILB-90, 1-((5-bromopyrimidin-2-yl)methyl)dihydropyrimidine-2,4(1H,3H)-dione], the AC50 at CRBN was greater than 50 µM. For the same molecule, the “CRBN Amax* (% at 50 μM) Format 2a” value on CRBN (45 min) was 40%.

With `CCOC(COc1ccc(N2CCC(=O)NC2=O)c(Cl)c1)OCC` [ILB-61, 1-(2-chloro-4-(2,2-diethoxyethoxy)phenyl)dihydropyrimidine-2,4(1H,3H)-dione], the concentration at half-maximal activity (AC50) on CRBN (setting [1]) turned out to be 3.44 µM.

The values are drawn from patent US20220387602A1, “BIFUNCTIONAL DEGRADERS AND THEIR METHODS OF USE” (NOVARTIS AG, priority 2019, published 2022).
